Assay results taken from ChEMBL document CHEMBL1125178, “Electrophilic gamma-lactone kappa-opioid receptor probes. Analogues of 2'-hydroxy-2-tetrahydrofurfuryl-5,9-dimethyl-6,7-benzomorphan diastereomers” (J Med Chem, 1991).

Key:
[1] = Displacement of [3H]bremazocine from opioid receptor of guinea pig membrane; set-up: species or system Cavia porcellus
[2] = molecular target: Kappa-type opioid receptor (Cavia porcellus, UniProt P41144); experiment: Displacement of [3H]bremazocine from opioid receptor kappa of guinea pig membrane.
[3] = molecular target: Opioid receptors; mu/kappa/delta (Homo sapiens, UniProt P41145+P41143+P35372); experiment: Displacement of 0.5 nM [3H]bremazocine from opioid receptor sites in guinea pig membranes; format: cell membranes, Cavia porcellus; conditions: target entry is the homologue from another species

Chain of Kappa-type opioid receptor (P41144 whole entry): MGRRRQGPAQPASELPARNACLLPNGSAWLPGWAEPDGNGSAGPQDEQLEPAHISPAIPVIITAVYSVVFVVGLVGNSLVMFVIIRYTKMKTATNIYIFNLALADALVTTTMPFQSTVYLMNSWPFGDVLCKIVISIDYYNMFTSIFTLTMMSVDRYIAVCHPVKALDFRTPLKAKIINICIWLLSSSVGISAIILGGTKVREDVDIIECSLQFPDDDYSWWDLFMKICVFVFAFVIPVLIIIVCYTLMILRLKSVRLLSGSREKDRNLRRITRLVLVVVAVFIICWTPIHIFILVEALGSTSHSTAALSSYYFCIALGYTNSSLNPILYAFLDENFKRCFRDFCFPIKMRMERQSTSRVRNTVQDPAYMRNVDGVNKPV

SMILES | IC50 [1] | IC50 [2] | IC50 [3]
C[C@H]1[C@H]2Cc3ccc(O)cc3[C@@]1(C)CCN2C[C@@H]1CCC(=O)O1 | 12 nM | 7.3 nM | 
CC[C@@H]1[C@@H]2Cc3ccc(O)cc3[C@]1(CC)CCN2Cc1ccoc1 | 2200 nM |  | 
O=C1CC[C@@]2(O)[C@H]3Cc4ccc(O)c5c4[C@@]2(CCN3CC2CC2)[C@H]1O5 [NALTREXONE] | 5.7 nM |  | 
C[C@H]1[C@H]2Cc3ccc(O)cc3[C@]1(C)CCN2Cc1ccco1 | 6.8 nM | 5.7 nM | 
C=C1C[C@@H](CN2CC[C@]3(C)c4cc(O)ccc4C[C@@H]2[C@@H]3C)OC1=O | 380 nM | 400 nM | 
C[C@H]1[C@H]2Cc3ccc(O)cc3[C@@]1(C)CCN2C[C@@H]1CCCO1 | 2.3 nM | 1.7 nM | 
C[C@@H]1[C@@H]2Cc3ccc(O)cc3[C@]1(C)CCN2C[C@@H]1CCCO1 |  |  | 1000 nM
C=C1C[C@H](CN2CC[C@]3(C)c4cc(O)ccc4C[C@@H]2[C@@H]3C)OC1=O | > 3000 nM |  | 
C[C@H]1[C@H]2Cc3ccc(O)cc3[C@@]1(C)CCN2C[C@H]1C=CC(=O)O1 | 89 nM | 74 nM | 
C[C@H]1[C@H]2Cc3ccc(O)cc3[C@@]1(C)CCN2C[C@H]1CCC(=O)O1 | 620 nM | 400 nM | 
C=C1C[C@H](CN2CC[C@@]3(C)c4cc(O)ccc4C[C@H]2[C@H]3C)OC1=O | 1800 nM |  | 
C=C1C[C@@H](CN2CC[C@@]3(C)c4cc(O)ccc4C[C@H]2[C@H]3C)OC1=O |  |  | 1300 nM
C[C@H]1[C@H]2Cc3ccc(O)cc3[C@@]1(C)CCN2C[C@@H]1C=CC(=O)O1 | 7.4 nM | 5.4 nM | 
C=CCN1CC[C@]23c4c5ccc(O)c4O[C@H]2C(=O)CC[C@@]3(O)[C@H]1C5 [NALOXONE] | 23 nM |  | 
CC[C@H]1[C@H]2Cc3ccc(O)cc3[C@@]1(CC)CCN2Cc1ccoc1 | 2.9 nM | 1.6 nM | 
C[C@H]1[C@H]2Cc3ccc(O)cc3[C@@]1(C)CCN2C[C@H]1CCCO1 | 84 nM | 70 nM | 
